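Method: 48-hour compound exposure of cells in 96-well plates, five concentrations, linear interpolation of endpoints. The concentration for 50% growth inhibition is given as GI50.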 Active and inactive are the calls of the source. Rule as the data show it: active = GI50 up to about 1.1 µM and inactive = higher.

Assay in all cases: NCI tumour cell line growth inhibition, 48 h
In assay [1] the test system is SK-OV-3.
For assay [2], the system named is A549.
For assay [3], the system named is ACHN.
For assay [4], the system named is SK-MEL-28.
Assay [5] relates to DU-145.
Assay [6] concerns IGROV-1.
The subject of assay [7] is SF-295.
The test system of assay [8] is SF-539.
The test system of assay [9] is KM-20L2.
The subject of assay [10] is MCF7.
Assay [11] has as its system RXF 393.
Assay [12] deals with RPMI-8226.
For assay [13], the system named is Malme-3M.
The subject of assay [14] is OVCAR-4.
Assay [15] deals with COLO 205.
Assay [16] relates to TK-10.
Assay [17] deals with MDA-MB-435.
Assay [18] deals with MOLT-4.
The test system of assay [19] is OVCAR-5.
The test system of assay [20] is M14.

For `OC[C@H]1O[C@@H](n2cnc3c(S)ncnc32)[C@H](O)[C@@H]1O` [THIOINOSINE], the GI50 in [1] was 603 µM (inactive); in [2], > 2500 µM (inactive); in assay [3], > 2500 µM (inactive); in assay [4] it was > 2500 µM (inactive); in assay [5], 1390 µM (inactive); in [6], > 2180 µM (inactive). Moreover, the GI50 is > 2500 µM (inactive) in assay [7]; > 2500 µM (inactive) in assay [8]; > 2500 µM (inactive) in [9]; 2290 µM (inactive) in assay [10]; 2460 µM (inactive) in assay [11]; 1400 µM (inactive) in assay [12]. Moreover, the GI50 is 1860 µM (inactive) in assay [13]; 1520 µM (inactive) in [14]; > 2230 µM (inactive) in assay [15]; > 2500 µM (inactive) in [16]; 2330 µM (inactive) in [17]; 2300 µM (inactive) in assay [18]. The GI50 in assay [19] is > 2500 µM (inactive); in [20] it was 2360 µM (inactive).
As to `CCSc1nc(COC(=O)NC)c(COC(=O)NC)n1C`, the GI50 in assay [1] was 50.7 µM (inactive); in assay [2], > 97.5 µM (inactive); in assay [3], 16.6 µM (inactive); in [4], > 100 µM (inactive); in [6] it was > 79.8 µM (inactive); in assay [7], > 100 µM (inactive). The GI50 in [8] is 98.9 µM (inactive); in assay [9] it was > 100 µM (inactive); in assay [10], > 70.5 µM (inactive); in assay [11], 42.8 µM (inactive); in assay [12], > 97.9 µM (inactive); in assay [13], > 100 µM (inactive). Moreover, the GI50 in assay [14] was > 75.7 µM (inactive); in [15], > 74.3 µM (inactive); in assay [16], > 100 µM (inactive); in assay [17], > 100 µM (inactive); in assay [18], 43.4 µM (inactive); in [19], > 100 µM (inactive). Further, in assay [20], the GI50 is > 64.1 µM (inactive).
`COc1ccc(-c2c(C3=NCCCN3)nnn2-c2ccccc2)cc1`: the GI50 in [1], in assay [2], in [3], in assay [4], in [6] and in assay [7] was > 100 µM (inactive) in each case. Moreover, the GI50 in [8], in assay [9], in assay [11], in assay [12], in assay [13] and in assay [14] was > 100 µM (inactive) each time. Besides, the GI50 in assay [15], in assay [16], in assay [18], in [19] and in [20] was > 100 µM (inactive) throughout.
Take `CCOC(=O)C(CC(C)C)NC(=O)C(N)Cc1ccc(N(CCCl)CCCl)cc1` (stereo not given): the GI50 in [1] was 3.65 µM (inactive); in assay [2], 6.95 µM (inactive); in [3], 0.333 µM (active); in assay [4] it was 4.81 µM (inactive); in assay [5], 4.9 µM (inactive); in assay [6] it was 13.7 µM (inactive). Further, the GI50 in assay [7] was 4.39 µM (inactive); in assay [8] it was 2.57 µM (inactive); in assay [9], 3.33 µM (inactive); in assay [11], 2.01 µM (inactive); in [12], 5.61 µM (inactive); in assay [13], 1.75 µM (inactive). The GI50 in assay [14] was 1.6 µM (inactive); in assay [15] it was 4.22 µM (inactive); in assay [16] it was 9.71 µM (inactive); in assay [17] it was 16.9 µM (inactive); in assay [18], 0.0637 µM (active); in assay [19], 11.8 µM (inactive). The GI50 in [20] was 2.83 µM (inactive).

The values above are taken from ChEMBL document CHEMBL1201862, “PubChem BioAssay data set” (2004).
